The record followed here is a melting point compilation (Tetko et al.; mined from patent text by program, amines drawn as free bases though some values may be those of a salt).

As a reminder, the melting point is the temperature of the solid-liquid transition.

Regarding `O=C(NC(=O)N1CCC(COc2ccccc2)CC1)c1ccc(O)cc1`, the melting point was 207 °C.

With `CCc1ccc2c(=O)c3ccccc3ccc2c1`, the melting point is 62 to 64 °C.

Compound `N#CC(C#N)=C1N(CCCNC2CCCCC2)CCN1CCN1CCCCC1` returned a melting point of 78 to 80 °C.

Compound `O=C1N(Cc2ccc(C(F)(F)F)o2)c2ccccc2C12COc1ccc(Br)cc12` (centres undefined) yielded a melting point of 143 to 145 °C.

`CN1C(C)(C)CC(NC(=O)c2ccc(-c3cc4cc(Cl)c(Cl)cc4[nH]3)cc2)CC1(C)C` registered a melting point of 325 °C.

`Nc1nc(Cl)c(NC=O)c(N[C@@H]2CC=C(CO)C2)n1`: the melting point lay within 148 to 150 °C.

Turning to `CCCN(CC(O)C(Cc1ccccc1)NC(=O)C(C)CS(C)(=O)=O)S(=O)(=O)c1ccc(OC)cc1` (centres undefined), the melting point was in the range of 88 to 92 °C.

Compound `O=C(O)Cc1nn(Cc2ccc(Br)cc2F)c(=O)c2c(F)cccc12` displayed a melting point of 173 to 175 °C.

For the compound `CO[C@]12C[C@@H](CCN3CCC(O)(c4ccc(Cl)cc4)CC3)CN(C)[C@@H]1Cc1c[nH]c3cccc2c13`, the melting point was 133 to 139 °C.

In turn, `Nc1ccc2c(=O)n3c(nc2c1)C(=Cc1ccccc1Cl)CC3` registered a melting point of 275 to 280 °C.

`O=c1ccoc(C(O)c2cccc(F)c2)c1OCc1ccccc1` (centres undefined) gave a melting point of 95 to 96 °C.

The compound `COc1cc(Cl)c(/C(=N\O)c2ccccc2F)cc1Cl` registered a melting point of 188 °C.

For the compound `COc1cc(Nc2nccc(-c3ccc(N4CC(C)NC(C)C4)nc3)n2)cc(OC)c1OC` (centres undefined), the melting point was in the range of 110 to 111 °C.

Regarding `CCOCCOc1ccc(CN/C=C2\C(=O)NC(=O)c3ccc(Br)cc32)cc1O`, the melting point lay in the range of 179 to 180 °C.

Regarding `NCCCCNc1ncc2ncnc(Nc3ccc(F)c(Cl)c3)c2n1`, the melting point lay within 160 to 162 °C.

With `CC(=O)NCc1ccc(C(C)Cl)cc1` (centres undefined), the melting point was 58 to 62 °C.

Consider `O=C1Nc2c(ccc3ccccc23)SC1=Cc1ccc(Cl)cc1`, for which the melting point was 277 to 279 °C.

For the compound `COc1cn(-c2cccc(C3=CCOCC3)c2F)nc(-c2ccnn2-c2ccccc2)c1=O`, the melting point is 138 to 141 °C.

In the case of `O=C(c1ccc(Cl)c([N+](=O)[O-])c1)c1ccccn1`, the melting point fell in the range of 98 to 99 °C.

The compound `COC(=O)Cc1nc(-c2ccccc2)c(-c2ccccc2)s1` yielded a melting point of 65 to 67 °C.

`COc1ccc(C(F)(F)C(F)(F)F)cc1-c1csc(N)n1` returned a melting point of 125 °C.

On to `ON=C(CCN1CCN(c2ccccn2)CC1)c1ccc(F)cc1`, for which the melting point is 159 to 160 °C.

In turn, `CCCCc1nc(C(=O)O)c(S(=O)(=O)c2ccccc2)n1Cc1ccc(-c2ccccc2C(=O)O)cc1` had a melting point of 155 °C.

Take `Cn1c2ccccc2c2oc(C#N)cc(=O)c21`: the melting point fell in the range of 190 to 192 °C.

For the compound `CCc1ccc(Nc2nc3cc(NC(=O)c4ccc(CC)cc4)ccc3o2)cc1`, the melting point is greater than 250 °C.

In the case of `COc1ccc2[nH]cc(Cc3cccnc3)c2c1`, the melting point stood at 112 °C.

In turn, `CN(C)C(=O)CCc1c[nH]c(-c2cccs2)c1` came in with a melting point of 107 to 109 °C.

`O=C(O)c1cc(Br)ccc1OCC(F)(F)F`: the melting point lay within 126 to 128 °C.

`CC1(C)CCC(C)(C)c2cc(CC#Cc3ccc(C(=O)N4CCOCC4)cc3)ccc21` had a melting point of 98 to 99 °C.

In turn, `NC(=O)c1cnn(-c2ncc(C(F)(F)F)cc2Cl)c1N` showed a melting point of 196 °C.

With `CCCCCCCC(=O)c1ccc(CCC(CCOC(C)=O)(CCOC(C)=O)NC(C)=O)cc1`, the melting point lay in the range of 83 to 86 °C.

For the compound `O=C(O)CCC(=O)N[C@@H](Cc1ccc(-c2ccccc2)cc1)C(=O)NCCCCNc1ncccn1`, the melting point was in the range of 200 to 205 °C.

Turning to `CC1(C)CCC(C#N)(Cc2ccc(Cl)cc2)C1=O` (centres undefined), the melting point was in the range of 101 to 103 °C.

`CCCOc1ccccc1-c1nc2c(CCC)nn(C)c2c(=S)[nH]1` yielded a melting point of 111 to 112 °C.

Consider `COC(=O)[C@@H]1CCCN1S(=O)(=O)c1ccc(Cl)c(COc2cccc3cc(C(F)(F)F)c(C)nc23)c1Cl`, for which the melting point lay within 165 to 167 °C.

Compound `COc1c(F)ccc2c1C(C)(C)CC(O)(C(F)(F)F)C2Nc1cccc2c(=O)n(C)ncc12` (centres undefined) came in with a melting point of 262 to 263 °C.

`COc1ccc(F)c(O)c1` returned a melting point of 25 to 26 °C.

`NC(=O)c1cnc2cc(F)c(F)cc2c1` returned a melting point of 261 °C.

The compound `CNc1ncc2c(-c3cccc(Cl)c3)cc(-c3cccc(C(=O)O)c3)c(OC)c2n1` had a melting point of 270 °C.

Turning to `COc1ccc(CCOc2ccc(NC(=O)c3cc(F)cc(N4CCCCC4)c3)c3ccccc23)cc1OC`, the melting point lay within 158 to 160 °C.

Regarding `COc1ccc(C2=NN(c3cnc4ccccc4n3)C(=O)[C@H]3CC=CC[C@@H]23)cc1OC` (relative stereo), the melting point lay within 154 to 156 °C.

Regarding `C(=C\c1nc(COc2ccc(Cn3cnnc3)cc2)co1)/c1ccccc1`, the melting point was in the range of 209 to 210 °C.

As to `CN(C)c1ccc(CNC(=O)C(Cc2ccccc2)NC(=O)Nc2ccc(C(=N)N)cc2)cc1` (centres undefined), the melting point is 147 °C.

As to `CCOC(=O)CCCOc1ccc(C23CC4CC(CC(C4)C2)C3)cc1`, the melting point fell in the range of 45 to 46 °C.

Consider `CS(=O)(=O)Nc1ccc(C#N)cc1Nc1ccc(F)cc1F`, for which the melting point is 167 to 169 °C.

As to `CC(C)(N)c1ccc(-c2nc(Nc3ccc(CCN4CCOCC4)cc3)ncc2C#N)cc1`, the melting point is 156 °C.

With `CCOC(=O)/C=C/c1ccc(OCOC)cc1Oc1ncc(C(F)(F)F)cc1Cl`, the melting point was in the range of 73.5 to 74.5 °C.

`CN(Cc1ccc(NC(=O)C2=Cc3cc(-c4ccc(Cl)cc4)ccc3OCC2)cc1)C1CCOCC1` had a melting point of 191 to 192 °C.

`CN1CC(=O)NC(=O)N1c1cc(Cl)c(Oc2ccc(S(C)(=O)=O)cc2)c(Cl)c1` came in with a melting point of 223 °C.

In the case of `CCCn1c(=O)c2nc(C(C)Cc3ccc(OCC(=O)NCCN)cc3)[nH]c2n(CCC)c1=O` (centres undefined), the melting point is 143 to 144 °C.

The compound `CC(=O)Nc1cccc(OC2CCNCC2)c1` yielded a melting point of 164 to 165 °C.

Compound `CCOc1cc(OCC)c2c(=O)c(OCC)c(-c3ccccc3)oc2c1` displayed a melting point of 111 to 114 °C.

`COc1ccc2c(c1)c(-c1cc3c(OC)ccnc3[nH]1)cn2C`: the melting point fell in the range of 288 to 289 °C.

In turn, `CC(C)(C)NCCOP1Oc2c(cc(C(C)(C)C)cc2C(C)(C)C)Cc2cc(C(C)(C)C)cc(C(C)(C)C)c2O1` returned a melting point of 189 to 192 °C.

For `COc1cc(C)c(C(=O)c2c(OC)cnc(Cl)c2C(F)(F)F)c(OC)c1OC`, the melting point is 117 to 119 °C.

`Cc1[nH]c2ccc(C3=NNC(=O)CC3)cc2c1-c1ccccc1` had a melting point of 297 to 299 °C.

Take `O=P(O)(O)Cc1ccc(CS(=O)(=O)c2ccccc2)cc1`: the melting point was greater than 280 °C.

Take `COCNC(=O)SC(C(=O)O)c1ccccc1` (centres undefined): the melting point lay within 111 to 112 °C.

Compound `O=C1C(=O)N2CCOc3c(Cl)c(Cl)cc1c32` returned a melting point of 237 to 238 °C.

In turn, `O=C(O)c1cc(-c2cccc(C(F)(F)F)c2)c(=O)n2ccccc12` had a melting point of 228 to 229 °C.

The compound `CC(C)(C)Oc1cccc(C(=O)Nc2ccc(OCCN3CCOCC3)c3ccccc23)c1` had a melting point of 135 to 136 °C.

Compound `O=C(OCc1ccccc1)[C@H](Cc1ccc(-c2ccccc2)cc1)NCP(=O)(Oc1ccccc1)Oc1ccccc1` came in with a melting point of 85 to 86 °C.

Compound `CC(C)(C)CNC(=O)C1=C(C(=O)Nc2cc(OC3CCCC3)c(Cl)cc2F)CCCC1` showed a melting point of 173 to 175 °C.

In turn, `CC(C)(C)[C@@H]1CCc2nc3sc(C(=O)N[C@H](CN)c4cccc(NC(=O)c5ccno5)c4)cc3cc2C1` showed a melting point of 98 to 102 °C.

Take `O=C(c1ccccc1)c1ccc([N+](=O)[O-])c(F)c1`: the melting point is 77 to 79 °C.

As for `COc1ccc(N2CCN(CCn3c(=O)[nH]c4cscc4c3=O)CC2)cc1`, the melting point lay in the range of 238 to 239 °C.

In turn, `COC(=O)C1Cc2ccccc2NC1=O` (centres undefined) registered a melting point of 165 to 168 °C.

The compound `NC(=O)c1cc2ccccc2nc1N` yielded a melting point of 240 to 242 °C.

As for `CC(=O)NC(n1cncn1)C(Cl)(Cl)CCl` (centres undefined), the melting point was determined as 135 °C.

On to `COC(=O)c1cccc(Cn2ccn(C3CCc4ccccc4C3)c2=S)c1` (centres undefined), for which the melting point fell in the range of 130 to 132 °C.

Consider `O=C(c1cc(F)cc(F)c1)c1cc(F)cc(F)c1`, for which the melting point stood at 79 °C.

For the compound `CC(C)C(N)CCCCCCCCC(C)(C)C(=O)O` (centres undefined), the melting point is 156 to 159 °C.

In turn, `OC(CN1CCOCC1)c1cc(C(F)(F)F)nc2c(C(F)(F)F)cccc12` (centres undefined) yielded a melting point of 129 to 130 °C.

Regarding `CCc1csc2ccc3[nH]c4c(c3c12)CN(C)CC4`, the melting point was in the range of 181 to 182 °C.

On to `CC(=O)OC(C)N1C(=O)/C(=C\c2[nH]c(C)cc2C)c2ccccc21` (centres undefined), for which the melting point is 107 to 110 °C.

Turning to `CN(Cc1ccccc1)c1nc(=O)n(C(=O)c2cccs2)cc1F`, the melting point lay within 101 to 102 °C.

`CC(=O)Nc1nc2c(Oc3cc(-c4ccc(C(F)(F)F)cc4NCc4cncn4Cc4ccccc4)ncn3)cccc2s1` registered a melting point of 264 °C.

For the compound `CCCC[C@H](NC(=O)[C@H](CC(C)C)NC(=O)c1ccccc1F)C(=O)CSCc1ccco1`, the melting point lay in the range of 102 to 103 °C.

For the compound `CCCCCCCCCCCCCCCCCCOc1ccc(C(=O)Nc2ccc(O)cc2)cc1`, the melting point is 193 °C.

In the case of `CC(C)NC(=O)Oc1ccc2c(N(C)CCN3CCOCC3)noc2c1`, the melting point lay within 99 to 100 °C.

Consider `Cn1cc([N+](=O)[O-])nc1C(=O)Cl`, for which the melting point fell in the range of 126 to 128 °C.

`COC(=O)CCC(=O)c1ccc2c(c1)CC(CNC(C)=O)C2` (centres undefined) returned a melting point of 139 to 140 °C.

With `O=C(O)CCC(=O)OCCc1ccccc1`, the melting point fell in the range of 60 to 62 °C.

`O=c1[nH]c(=O)n(C2CC(OCc3ccccc3)C(COCc3ccccc3)C2O)cc1I` (centres undefined) came in with a melting point of 165 °C.

For `COc1ccc2cc(C(C)C)ccc2c1`, the melting point lay within 63.5 to 64.5 °C.

`CC(C)=Cn1ccnc1[N+](=O)[O-]` returned a melting point of 77 to 79 °C.

In turn, `N#Cc1ccc(C(F)(F)F)cc1N=NNc1cc(C(F)(F)F)ccc1C#N` displayed a melting point of 183 to 184 °C.

On to `N=C(N)N(C[C@H]1CC[C@H](C(=O)Nc2ccnc3[nH]ccc23)CC1)C(=O)OCc1ccccc1`, for which the melting point was 160 to 162 °C.

`COc1ncncc1NS(=O)(=O)c1cccc(Cl)c1Cl`: the melting point was in the range of 204 to 211 °C.
